# In patent US9988400B2 (Genentech, Inc., priority 2013, dated 2018):
# Target: T1, HEK cells stably transfected with tetracycline inducible hNR1 and hNR2A (Homo sapiens, UniProt Q05586+Q12879)
# T1 construct: expressed in transfected cells; host or cells: HEK cells, stably transfected, tetracycline/doxycycline inducible
# Test: Assay 1: Cell-Based Assay, cytosolic calcium response to positive allosteric modulators (with 30 μM glycine and 300 nM L-glutamate, EC30)
# Conditions: for EC50: cytosolic calcium response, with 30 μM glycine and 300 nM L-glutamate (EC30), — = no plateau was reached; for Max %: responses scaled relative to 100 μM L-glutamate maximal response (100%) and 0 μM L-glutamate (0%)
# Procedure, shortened: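 Cells induced 24 h with 7.5 μg mL^−1 doxycycline plus 500 μM (+)-ketamine, loaded 60 min at 37 °C with calcium dye in Mg-free HBSS (1.8 mM Ca, probenecid, 10 μM (+)-ketamine, pH 7.15). Peak RFU over 5 min after compound addition, scaled to 100 μM L-glutamate (100%) and 0 μM (0%); four-parameter Hill fit for EC50, max % if no plateau.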
# T1 sequence (Q12879 23-1464, other chains not shown): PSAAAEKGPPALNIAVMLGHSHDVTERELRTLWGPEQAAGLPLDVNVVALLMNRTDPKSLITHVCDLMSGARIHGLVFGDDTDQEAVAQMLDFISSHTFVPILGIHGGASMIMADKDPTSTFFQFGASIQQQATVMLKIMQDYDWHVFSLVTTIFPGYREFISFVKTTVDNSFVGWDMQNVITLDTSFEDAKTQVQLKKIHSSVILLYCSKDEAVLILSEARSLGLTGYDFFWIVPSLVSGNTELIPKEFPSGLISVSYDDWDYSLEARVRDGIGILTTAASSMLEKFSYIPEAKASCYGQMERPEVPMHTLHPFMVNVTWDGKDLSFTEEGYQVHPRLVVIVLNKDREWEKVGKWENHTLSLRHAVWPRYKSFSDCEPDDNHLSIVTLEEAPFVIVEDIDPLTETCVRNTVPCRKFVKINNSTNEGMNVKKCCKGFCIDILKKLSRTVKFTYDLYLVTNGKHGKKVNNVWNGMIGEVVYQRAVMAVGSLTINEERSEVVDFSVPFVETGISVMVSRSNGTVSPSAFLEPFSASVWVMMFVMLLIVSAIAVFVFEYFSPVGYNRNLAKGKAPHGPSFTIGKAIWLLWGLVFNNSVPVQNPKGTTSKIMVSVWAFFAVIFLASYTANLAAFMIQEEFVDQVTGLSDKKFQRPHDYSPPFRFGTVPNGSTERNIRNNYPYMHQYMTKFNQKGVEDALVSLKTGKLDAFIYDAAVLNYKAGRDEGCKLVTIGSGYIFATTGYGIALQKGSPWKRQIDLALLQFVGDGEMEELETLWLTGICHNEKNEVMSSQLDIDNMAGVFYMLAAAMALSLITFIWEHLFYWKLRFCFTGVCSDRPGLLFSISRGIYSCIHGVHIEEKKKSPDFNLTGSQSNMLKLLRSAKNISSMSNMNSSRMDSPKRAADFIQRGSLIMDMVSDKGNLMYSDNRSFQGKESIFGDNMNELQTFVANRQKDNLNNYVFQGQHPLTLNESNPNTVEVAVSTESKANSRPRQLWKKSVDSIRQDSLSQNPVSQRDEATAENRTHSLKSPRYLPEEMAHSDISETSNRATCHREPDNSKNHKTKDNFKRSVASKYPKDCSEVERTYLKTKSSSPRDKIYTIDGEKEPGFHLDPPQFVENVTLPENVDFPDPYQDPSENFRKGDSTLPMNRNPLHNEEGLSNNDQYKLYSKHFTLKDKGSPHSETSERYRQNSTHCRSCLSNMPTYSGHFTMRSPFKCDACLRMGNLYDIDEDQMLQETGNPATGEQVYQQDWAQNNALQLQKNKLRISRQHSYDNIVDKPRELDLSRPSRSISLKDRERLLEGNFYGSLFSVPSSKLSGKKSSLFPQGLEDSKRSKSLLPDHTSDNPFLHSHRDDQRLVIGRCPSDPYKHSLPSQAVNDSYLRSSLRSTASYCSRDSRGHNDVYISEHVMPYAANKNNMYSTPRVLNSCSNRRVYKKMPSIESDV
SMILES,EC50 (Table 3) [µM],EC50 (Table 2) [µM],Max % (Table 2) [%]
"CCNC(=O)c1c(C(C)=O)sc2nc(Cn3nc(C(F)(F)F)cc3Cl)cc(=O)n12 [compound 237, 2-acetyl-7-[[5-chloro-3-(trifluoromethyl)pyrazol-1-yl]methyl]-N-ethyl-5-oxo-thiazolo[3,2-a]pyrimidine-3-carboxamide]",0.889,,
"Cc1sc2nc(Cn3nc(Cl)cc3C(F)(F)F)cc(=O)n2c1C(F)(F)F [compound 161, 7-[[3-chloro-5-(trifluoromethyl)pyrazol-1-yl]methyl]-2-methyl-3-(trifluoromethyl)thiazolo[3,2-a]pyrimidin-5-one]",1.49,,
"Cc1sc2nc(Cc3cccc(C#N)n3)cc(=O)n2c1C1CC1C#N (stereo not shown) [Example 23.3, 6-((3-(2-cyanocyclopropyl)-2-methyl-5-oxo-5H-thiazolo[3,2-a]pyrimidin-7-yl)methyl)picolinonitrile]",,14.8,133
"CCNC(=O)c1c(OC)sc2nc(Cc3cccc(C(F)(F)F)c3F)cc(=O)n12 [compound 91, N-Ethyl-7-[[2-fluoro-3-(trifluoromethyl)phenyl]methyl]-2-methoxy-5-oxo-thiazolo[3,2-a]pyrimidine-3-carboxamide]",1.03,,
"Cc1sc2nc(Cc3cncc4ccccc34)cc(=O)n2c1[C@@H]1C[C@H]1CO (relative stereo) [Example 20.4, 3-(trans-2-(hydroxymethyl)cyclopropyl)-7-(isoquinolin-4-ylmethyl)-2-methyl-5H-thiazolo[3,2-a]pyrimidin-5-one]",,8.5,147
"CCNC(=O)c1c(Cl)sc2nc(Cc3cccc(C#N)c3F)cc(=O)n12 [compound 69, 2-chloro-7-[(3-cyano-2-fluoro-phenyl)methyl]-N-ethyl-5-oxo-thiazolo[3,2-a]pyrimidine-3-carboxamide]",11.2,,
"CCN(Cc1cc(=O)n2c3c(sc2n1)CCC3CO)c1ccc(F)cc1 (single isomer, unassigned) [Example 8.4, 6-[(N-ethyl-4-fluoro-anilino)methyl]-1-(hydroxymethyl)-2,3-dihydro-1H-cyclopenta[3,4]thiazolo[1,4-a]pyrimidin-8-one]",,0.569,164
"CCNC(=O)c1c(C(F)(F)F)sc2nc(Cn3nc(C(F)(F)F)cc3Cl)cc(=O)n12 [compound 43, 7-[[5-chloro-3-(trifluoromethyl)pyrazol-1-yl]methyl]-N-ethyl-5-oxo-2-(trifluoromethyl)thiazolo[3,2-a]pyrimidine-3-carboxamide]",0.362,,
"Cc1sc2nc(COc3ccc(F)cc3)cc(=O)n2c1[C@@H]1C[C@H]1C#N (single isomer, unassigned) [Example 4.21, trans-2-[7-(4-Fluorophenoxymethyl)-2-methyl-5-oxo-5H-[1,3]thiazolo[3,2-a]pyrimidin-3-yl]cyclopropane-1-carbonitrile]",,16.3,47.4
"COc1cc(F)c(F)cc1Cc1cc(=O)n2c(C3CC3C#N)c(C)sc2n1 (stereo not shown) [compound 194, 2-[7-[(4,5-difluoro-2-methoxy-phenyl)methyl]-2-methyl-5-oxo-thiazolo[3,2-a]pyrimidin-3-yl]cyclopropanecarbonitrile]",1.28,,
"CCNC(=O)c1c(C)sc2nc(Cc3cc(F)c(F)cc3CCF)cc(=O)n12 [compound 17, 7-[[4,5-difluoro-2-(2-fluoroethyl)phenyl]methyl]-N-ethyl-2-methyl-5-oxo-thiazolo[3,2-a]pyrimidine-3-carboxamide]",7.04,,
"Cc1sc2nc(Cn3ncc4ccccc43)cc(=O)n2c1-c1cncnc1 [Example 15.34, 7-((1H-indazol-1-yl)methyl)-2-methyl-3-(pyrimidin-5-yl)-5H-thiazolo[3,2-a]pyrimidin-5-one]",,,48.2
"Cc1sc2nc(Cn3nc(C(F)(F)F)cc3Cl)cc(=O)n2c1CC1CC1 [compound 221, 7-[[5-chloro-3-(trifluoromethyl)pyrazol-1-yl]methyl]-3-(cyclopropylmethyl)-2-methyl-thiazolo[3,2-a]pyrimidin-5-one]",3.76,,
"Cc1sc2nc(Cn3nc(C(F)(F)F)cc3Cl)cc(=O)n2c1C(=O)NCC(F)(F)F [compound 65, 7-[[5-chloro-3-(trifluoromethyl)pyrazol-1-yl]methyl]-2-methyl-5-oxo-N-(2,2,2-trifluoroethyl)thiazolo[3,2-a]pyrimidine-3-carboxamide]",0.551,,
"CCN(Cc1cc(=O)n2c(-c3cnn(C)c3)c(C)sc2n1)c1ccc(F)cc1 [Example 5.33, 7-[(N-ethyl-4-fluoro-anilino)methyl]-2-methyl-3-(1-methylpyrazol-4-yl)thiazolo[3,2-a]pyrimidin-5-one]",,4.2,120
"Cc1sc2nc(Cn3nc(C(F)(F)F)cc3Cl)cc(=O)n2c1-c1cncc(Cl)c1 [compound 149, 3-(5-chloro-3-pyridyl)-7-[[5-chloro-3-(trifluoromethyl)pyrazol-1-yl]methyl]-2-methyl-thiazolo[3,2-a]pyrimidin-5-one]",0.729,,
"Cc1sc2nc(COc3ccccc3F)cc(=O)n2c1[C@@H]1C[C@H]1CO (relative stereo) [Example 4.12, 7-((2-fluorophenoxy)methyl)-3-(trans-2-(hydroxymethyl)cyclopropyl)-2-methyl-5H-thiazolo[3,2-a]pyrimidin-5-one]",,30.6,127
"O=c1cc(Cn2nc(C(F)(F)F)cc2Cl)nc2sc(C(F)(F)F)c(-c3cncc(F)c3)n12 [compound 249, 7-[[5-chloro-3-(trifluoromethyl)pyrazol-1-yl]methyl]-3-(5-fluoro-3-pyridyl)-2-(trifluoromethyl)thiazolo[3,2-a]pyrimidin-5-one]",6.33,,
"Cc1sc2nc(Cn3nc(C4CC4)cc3C)cc(=O)n2c1[C@@H]1C[C@H]1CO (single isomer, unassigned) [Example 15.15, 7-[(3-cyclopropyl-5-methyl-pyrazol-1-yl)methyl]-3-[2-(hydroxymethyl)cyclopropyl]-2-methyl-thiazolo[3,2-a]pyrimidin-5-one]",,,61.9
"CC1CC1c1c(Cl)sc2nc(Cc3cccc(C(F)(F)F)c3F)cc(=O)n12 (stereo not shown) [compound 121, 2-chloro-7-[[2-fluoro-3-(trifluoromethyl)phenyl]methyl]-3-(2-methylcyclopropyl)thiazolo[3,2-a]pyrimidin-5-one]",17.6,,
"Cc1sc2nc(Cn3nc(C(F)(F)F)cc3Cl)cc(=O)n2c1-c1cccnc1F [compound 157, 7-[[5-chloro-3-(trifluoromethyl)pyrazol-1-yl]methyl]-3-(2-fluoro-3-pyridyl)-2-methyl-thiazolo[3,2-a]pyrimidin-5-one]",13,,
"CNC(=O)c1c(C)sc2nc(Cc3cccc(C4CC4)c3F)cc(=O)n12 [compound 1, 7-[(3-cyclopropyl-2-fluoro-phenyl)methyl]-N,2-dimethyl-5-oxo-thiazolo[3,2-a]pyrimidine-3-carboxamide]",0.932,,
"CNC(=O)c1c(C)sc2nc(Cc3cccc(C(F)F)c3F)cc(=O)n12 [Example 21.23, 7-[[3-(difluoromethyl)-2-fluoro-phenyl]methyl]-N,2-dimethyl-5-oxo-thiazolo[3,2-a]pyrimidine-3-carboxamide]",,6.5,107
"Cc1sc2nc(Cn3nc(C(F)(F)F)cc3Cl)cc(=O)n2c1C(F)(F)F [compound 160, 7-[[5-chloro-3-(trifluoromethyl)pyrazol-1-yl]methyl]-2-methyl-3-(trifluoromethyl)thiazolo[3,2-a]pyrimidin-5-one]",0.753,,
"Cc1sc2nc(Cn3nc(Cl)cc3C(F)(F)F)cc(=O)n2c1C(=O)NCC(F)(F)F [compound 66, 7-[[3-chloro-5-(trifluoromethyl)pyrazol-1-yl]methyl]-2-methyl-5-oxo-N-(2,2,2-trifluoroethyl)thiazolo[3,2-a]pyrimidine-3-carboxamide]",1.69,,
"CCN(Cc1cc(=O)n2c(-c3cncnc3)c(C)sc2n1)c1cccc(C#N)c1 [Example 5.10, 3-(ethyl((2-methyl-5-oxo-3-(pyrimidin-5-yl)-5H-thiazolo [3,2-a]pyrimidin-7-yl)methyl)amino)benzonitrile]",,18,133
"Cc1sc2nc(Cn3nc(C4CC4)cc3C(F)(F)F)cc(=O)n2c1[C@@H]1C[C@H]1CO (relative stereo) [Example 15.12, 7-((3-cyclopropyl-5-(trifluoromethyl)-1H-pyrazol-1-yl)methyl)-3-(trans-2-(hydroxymethyl)cyclopropyl)-2-methyl-5H-thiazolo[3,2-a]pyrimidin-5-one]",,2.5,143
"Cc1sc2nc(Cn3nc(C(F)(F)F)cc3C)cc(=O)n2c1C(=O)NCC(F)(F)F [compound 52, 2-methyl-7-[[5-methyl-3-(trifluoromethyl)pyrazol-1-yl]methyl]-5-oxo-N-(2,2,2-trifluoroethyl)thiazolo[3,2-a]pyrimidine-3-carboxamide]",8.76,,
"CCC(C)NC(=O)c1c(C)sc2nc(Cc3cccc(C(F)(F)F)c3F)cc(=O)n12 (stereo not shown) [compound 112, 7-[[2-fluoro-3-(trifluoromethyl)phenyl]methyl]-2-methyl-5-oxo-N-sec-butyl-thiazolo[3,2-a]pyrimidine-3-carboxamide]",0.825,,
"Cc1sc2nc(Cn3nc(C(F)(F)F)cc3C3CC3)cc(=O)n2c1[C@@H]1C[C@H]1CO (relative stereo) [Example 15.11, 7-((5-cyclopropyl-3-(trifluoromethyl)-1H-pyrazol-1-yl)methyl)-3-(trans-2-(hydroxymethyl)cyclopropyl)-2-methyl-5H-thiazolo[3,2-a]pyrimidin-5-one]",,0.151,159
